Test results published in ChEMBL document CHEMBL3507680, “University of Dundee, Gates Library screen for HepG2 cell viability”.

assay: Human HepG2 cell viability assay in 384 well format; assay type: toxicity, cell-based; design: dose 125 nL, time 70.5 hour; concentration not given beside the values; conditions: HepG2 cells, read-out: Inhibition

Compound	cytotoxicity at 70.5 h
CNC(=O)C(C)(C)N1CCC[C@H]1C(=O)NC1CCCC1	-0.301%
COCCN1C[C@H]2CN(C(=O)NCc3ccccc3)CCN2C1=O	-8.58%
O=C(NC[C@H]1OC[C@@H](NC2COC2)[C@@H]1O)C1CCCC1	-8.61%
Cc1ccc(CNC2(Cc3cc(-c4cccc(O)c4)on3)COC2)o1	-8.24%
CC(C)(O)c1cc(CC2(NCc3ccccc3Cl)COC2)no1	-0.604%
CC(C)(C)CN[C@@H]1CO[C@H](CNC(=O)c2ccncc2)[C@H]1O	0.614%
F[C@@H]1CN(CC2CC2)C[C@@H]1OCc1nc2ccccc2o1	-1.13%
Cc1ccc2nc3n(c2c1)[C@@H](CNC(=O)c1ccncc1)COC3	4.47%
COc1cccc(CNC[C@H]2COCc3nc4cccnc4n32)n1	-8.19%
COc1ccc(C(=O)NC[C@H]2COCc3nc4cc(C)ccc4n32)cc1	-4.37%
Cc1cccc2c1nc1n2[C@@H](CNC(=O)C2CCOCC2)COC1	-4.19%
COCC(=O)N[C@H](C)c1c(-c2ccc(Cl)cc2)noc1C(=O)O	-2.23%
Cc1cccc2c1nc1n2[C@@H](CNC(=O)Cc2ccccc2)COC1	-1.08%
CCCn1ncc(C(=O)NCCc2[nH]nc3c2CCCC3)c1C	-5.62%
C[C@@H]1CN(C2CCCCC2)CC[C@@]1(O)C1CCOCC1	-16%
O=C1NCC2(CCCN(Cc3ccccc3OCCO)C2)O1 (stereo not drawn)	-8.84%
CCC(CO)N(Cc1ccccn1)C(=O)c1ncccc1C (stereo not drawn)	15.2%
COc1cccc(OCC2CCCN(C(=O)c3ncc(F)cc3F)C2)c1 (stereo not drawn)	1.3%
COc1ccc(CCN2C(=O)O[C@@H]3CN(C4CCSCC4)C[C@@H]32)cc1	-6.37%
Cc1cnc(C)c(N2CCCC(CO)(Cc3ccccc3C)C2)n1 (stereo not drawn)	11.4%
O=C(N[C@@H]1CCN(c2ncc(Cl)cc2Cl)C[C@H]1O)c1cnccn1	-2.1%
CCCc1ccc(CN2CCC3(CCC(=O)N(C(C)C(=O)O)C3)CC2)o1 (stereo not drawn)	-4.9%
CN(C)CC(C)(C)Cn1cnc(-c2ccccc2)c1-c1ncc[nH]1	11.7%
Cc1ccc(C(=O)O)c(N2Cc3cnc(C(C)(C)C)nc3C2)n1	-14.8%
Cc1ccc(C2CC(=O)NCc3nc(N)sc32)cc1C (stereo not drawn)	-5.03%
COc1ccc2c(c1)OCC(CNC(=O)c1ccncc1)C2 (stereo not drawn)	13.9%

Compound	cytotoxicity at 70.5 h
CCCc1nc(C)cc(N2CCC3(CCC(=O)N(CCOC)C3)CC2)n1	-9.62%
Cn1nccc1C(=O)N1CCOC(Cc2cccc(C(F)(F)F)c2)C1 (stereo not drawn)	4.43%
CCCn1nc(C2CCNCC2)n(Cc2ccccc2)c1=O	-7.28%
O=C(CCn1cnnc1)N1CCCC(c2ncc[nH]2)C1 (stereo not drawn)	-2.12%
CN(Cc1ccccc1)C1(C(=O)O)Cc2ccccc2C1	-1.88%
CC(C)C(=O)N1CCN(C(=O)c2cc(C(C)C)on2)[C@H]2CS(=O)(=O)C[C@H]21	14.2%
O=C1OC2(CCN(C3CCCOC3)CC2)CN1CCc1ccccc1 (stereo not drawn)	5.31%
CN(C)c1nc2c(c(=O)[nH]1)CCN(C(=O)c1cccc3nccnc13)C2	2.31%
CCn1nc(C)c(CCn2ccnc2-c2cc3n(n2)CCCNC3)c1C	-3.85%
CC(Cn1cncn1)NCc1nncn1C1CCCCC1 (stereo not drawn)	-1.66%
COc1ccc(Cl)cc1C(=O)N1CCOC2(CNCCOC2)C1 (stereo not drawn)	-0.31%
CC(C)=CCN1C[C@H]2CC[C@@H]1CN(C(=O)c1c[nH]c(=O)c(Cl)c1)C2	-1.3%
O=C(C1CCC1)N1CCN(Cc2ccsc2)[C@H]2CS(=O)(=O)C[C@H]21	-0.678%
Cc1ccc(C#N)c(N2CCC(c3nccn3CCN(C)C)CC2)n1	-7.04%
Cc1nc(CCN(C)C(=O)C2COc3ccccc3C2)no1 (stereo not drawn)	17.3%
Cc1nccn1Cc1nnc(C2CCCN(Cc3cccnc3)C2)n1C (stereo not drawn)	5.17%
Cc1nc(N)sc1C(=O)N1CCCC(c2nccn2CCCN(C)C)C1 (stereo not drawn)	-5.45%
CCNC(=O)[C@@H]1C[C@@H](NC(=O)Cc2ccccn2)CN1CCCSC	14.8%
CCC1CN(C(=O)c2ccc(Cl)cc2O)CCN1C(C)C (stereo not drawn)	-6.93%
O=C(CCCc1cn[nH]c1)N1CCOCC(O)C1 (stereo not drawn)	0.158%
CCc1c(C)nn(CCNC(=O)C2CCCN(C(=O)N(C)C)C2)c1C (stereo not drawn)	-10.4%
c1cn(Cc2nnc(C3CCN(C4CCOCC4)CC3)n2C2CC2)cn1	-4.93%
CCN1CCn2nc(CCC(=O)N3CCCC3)cc2C1	-4.63%
CN1CCC(c2nnc(CN3CCC(O)CC3)n2C)CC1	-5.78%
Cc1scc(C(=O)N2CCC3(CCCN(C)C3=O)C2)c1-c1ccccc1 (stereo not drawn)	-11.2%
Cc1cc(C)nc(CCNC(=O)[C@H]2CNC[C@@H](C(=O)N3CCCC3)C2)n1	9.67%

Compound	cytotoxicity at 70.5 h
CC(C)(C)c1ccn(C2(C(=O)O)CCN(c3nccc(N)n3)CC2)n1	-3.64%
Cc1nccn1CCC1CCCCN1Cc1ccc(N(C)C)nc1 (stereo not drawn)	-10.4%
Cc1nc[nH]c1CN1CCN(C(=O)CCC(F)(F)F)[C@H]2CS(=O)(=O)C[C@H]21	-9.24%
O=C1N(Cc2cccc(F)c2F)CCCC1(O)CN1CCCOCC1 (stereo not drawn)	-1.1%
COc1ccc(NC(=O)CCC2CCCN(Cc3ncon3)C2)cc1Cl (stereo not drawn)	-7.33%
Cn1cc(CN2CC[C@@H]3[C@@H](CCC(=O)N3CCc3c[nH]cn3)C2)cn1	-6.69%
CN(C)[C@H]1CCCCN(C(=O)CCc2csc(N)n2)C1	-6.16%
CC(C)(C)n1cc(C2=CCN(CCc3ccccc3)CC2)cn1	-3.25%
CCc1c(C)sc(NC(=O)CN2CCN(CC)CC2)c1C(=O)OC	-2.99%
O=S(=O)(Cc1ccccc1F)NCCN1CCOCC1	-2.45%
COc1cccc(CN2CCC(c3nccn3C(C)C)CC2)c1	-13.1%
Cc1cc(F)ccc1OC1(C(=O)O)CCN(Cc2ccncc2)CC1	-8.64%
COCCN(C)CC(=O)N1C[C@H]2CC[C@@H]1CN(C(=O)c1ccncc1)C2	-10.1%
Nc1nc(CCC(=O)N2CCOC(CC3CCCCC3)C2)cs1 (stereo not drawn)	-2.5%
COc1ccc(-n2nnc(C(=O)NC(C)C)c2C2CC2)cc1	-6.86%
COC(=O)C1CCN(C(=O)c2ccc(C)c(NS(C)(=O)=O)c2)CC1	-8.87%
CCCNC(=O)c1ccc(NC(=O)c2cccc(OCC)c2)cc1	-7.63%
O=S(=O)(Cc1ccccc1F)NCCCN1CCCCC1	-1.2%
CCC(NC(=O)C1CCN(S(C)(=O)=O)CC1)c1ccc(OC)c(OC)c1 (stereo not drawn)	-7.44%
O=C1CC(c2cccs2)c2snc(C(=O)O)c2N1 (stereo not drawn)	-9.35%
CCCS(=O)(=O)N1CCN(c2cc(-n3nc(C)cc3C)nc(C)n2)CC1	-10.3%
COc1ccc(C2CC(=O)Nc3c2cnn3C2CCCC2)cc1 (stereo not drawn)	-11.1%
CC(=O)c1cn(CC(=O)NC(C(=O)O)C(C)C)c2ccccc12 (stereo not drawn)	0.278%
CC(COc1ccccc1)NCc1nc(-c2cccnc2)no1 (stereo not drawn)	-1.13%
CCNC(=O)[C@@H]1CCCN1C1(C(=O)NC)CCCCC1	4.64%
O[C@@H]1C[C@@](CNCc2ccc(Cl)cc2)(COc2cccnc2)C[C@@H]1O	-10.2%
